Reference: patent US10487093B2, “Heterocyclic compounds, in particular 2-oxo-4,4,5,5,6,6,7,7-octahydrobenzoxazole derivatives, and their use as antibacterial compounds” (priority 2016, dated 2019)
≈ marks a conversion by molar mass, not a printed value.

Tests used:
[1] = tested on: Acinetobacter baumannii NCTC 13420; test: MIC, broth microdilution (CLSI) versus planktonic bacteria; format: cell-based; details: NCTC13420; Acinetobacter baumannii NCTC 13420; 16-20 h; mode of three independent experiments; read-out: MIC, Ab NCTC 13420
[2] = tested on: Acinetobacter baumannii ATCC 19606; test: as above; format: cell-based; details: ATCC19606; Acinetobacter baumannii ATCC 19606; 16-20 h; mode of three independent experiments; read-out: MIC, Ab ATCC 19606
[3] = tested on: Enterobacter cloacae NCTC 13406; test: as above; format: cell-based; details: NCTC13406; Enterobacter cloacae NCTC 13406; 16-20 h; mode of three independent experiments; read-out: MIC, Ecl NCTC 13406
[4] = tested on: Escherichia coli ATCC 25922; test: as above; format: cell-based; details: ATCC25922; Escherichia coli ATCC 25922; 16-20 h; mode of three independent experiments; read-out: MIC, Ec ATCC 25922
E. coli ATCC BAA-2452 = test: as above; format: cell-based; details: Escherichia coli ATCC BAA-2452; 16-20 h; mode of three independent experiments; read-out: MIC, Ec ATCC BAA 2452
E. coli NCTC 13476 = test: as above; format: cell-based; details: NCTC13476; Escherichia coli NCTC 13476; 16-20 h; mode of three independent experiments; read-out: MIC, Ec NCTC 13476
E. coli MG1655 = test: as above; format: cell-based, Escherichia coli; details: Escherichia coli, MG1655, read-out: MIC, Ec MG1655 WT
[5] = tested on: Haemophilus influenzae ATCC 49247; test: as above; format: cell-based; details: ATCC49247; Haemophilus influenzae ATCC 49247; 16-20 h; mode of three independent experiments; read-out: MIC, Hi ATCC 49247
[6] = tested on: Mycobacterium smegmatis ATCC 19420; test: as above; format: cell-based; details: Mycolicibacterium smegmatis, ATCC19420, 16-20 h, mode of three independent experiments, read-out: MIC, Ms ATCC 19420
[7] = tested on: Neisseria meningitidis ATCC 13090; test: as above; format: cell-based; details: ATCC13090, 16-20 h, mode of three independent experiments
[8] = tested on: Pseudomonas aeruginosa ATCC 27853; test: as above; format: cell-based; details: ATCC27853; Pseudomonas aeruginosa ATCC 27853; 16-20 h; mode of three independent experiments; read-out: MIC, Pa ATCC 27853
[9] = tested on: Staphylococcus aureus ATCC 29213; test: as above; format: cell-based; details: ATCC29213; Staphylococcus aureus ATCC 29213; 16-20 h; mode of three independent experiments; read-out: MIC, Sa ATCC 29213
[10] = tested on: Streptococcus pneumoniae ATCC 49619; test: as above; format: cell-based; details: ATCC49619; Streptococcus pneumoniae ATCC 49619; 16-20 h; mode of three independent experiments; read-out: MIC, Sp ATCC 49619
E. coli MG1655 S83L = format: cell-based, Escherichia coli; details: compared to the isogenic parent strain E. coli MG1655; S83L mutation on DNA gyrase subunit GyrA
E. coli MG1655 D87G = format: cell-based, Escherichia coli; details: compared to the isogenic parent strain E. coli MG1655; D87G mutation on DNA gyrase subunit GyrA
[11] = tested on: human hepatic cell line (HepG2 ATCC HB-8065); test: Human cell viability assay (CellTiter-Glo); details: Homo sapiens, HepG2, 24 h, read-out: IC50 (μg/mL) HepG2

| SMILES | MIC [1] [µg/mL] | MIC [2] [µg/mL] | MIC [3] [µg/mL] | MIC [4] [µg/mL] | MIC (E. coli ATCC BAA-2452) [µg/mL] | MIC (E. coli NCTC 13476) [µg/mL] | MIC (E. coli MG1655) [µg/mL] | MIC [5] [µg/mL] | MIC [6] [µg/mL] | MIC [7] [µg/mL] | MIC [8] [µg/mL] | MIC [9] [µg/mL] | MIC [10] [µg/mL] | Fold increase in MIC, E. coli MG1655 S83L (E. coli MG1655 S83L) [fold] | Fold increase in MIC, E. coli MG1655 D87G (E. coli MG1655 D87G) [fold] | IC50 [11] [µg/mL] |
| --- | --- | --- | --- | --- | --- | --- | --- | --- | --- | --- | --- | --- | --- | --- | --- | --- |
| COc1ccc2ccc(=O)n(CCN[C@H]3CC[C@H]4[C@@H](C3)OC(=O)N4c3ccc4c(n3)NC(=O)CO4)c2n1 [Compound 4, 1-(2-{[(3aS,6S,7aR)-2-oxo-3-{3-oxo-2H,3H,4H-pyrido[3,2-b][1,4]oxazin-6-yl}-octahydro-1,3-benzoxazol-6-yl]amino}ethyl)-7-methoxy-1,2-dihydro-1,8-naphthyridin-2-one] | < 1 | < 1 | < 1 | < 1 | < 1 | < 1 | < 1 | 1 to 10 (≈ 1.97 to 19.7 µM) | < 1 | < 1 | 1 to 10 (≈ 1.97 to 19.7 µM) | < 1 | < 1 | 1 | 1 | 10 to 100 (≈ 19.7 to 197 µM) |
| N#Cc1cccc(-c2cccc(CN[C@H]3CC[C@H]4[C@@H](C3)OC(=O)N4c3ccc4c(n3)NC(=O)CO4)c2O)n1 [Compound 18, 6-[3-({[(3aS,6S,7aR)-2-oxo-3-{3-oxo-2H,3H,4H-pyrido[3,2-b][1,4]oxazin-6-yl}-octahydro-1,3-benzoxazol-6-yl]amino}methyl)-2-hydroxyphenyl]pyridine-2-carbonitrile] | < 1 | < 1 | < 1 | < 1 | 1 to 10 (≈ 1.95 to 19.5 µM) | 1 to 10 (≈ 1.95 to 19.5 µM) | < 1 | 1 to 10 (≈ 1.95 to 19.5 µM) |  | < 1 | 1 to 10 (≈ 1.95 to 19.5 µM) | < 1 | < 1 | 2 | 1 | 1 to 10 (≈ 1.95 to 19.5 µM) |
